Test results taken from US20240316023A1, “BENEDIN, PIPERIDINE, 2-BENZHYDRYL-3-HYDROXY-N-METHYL-, HYDROCHLORIDE AND DERIVATIVES THEREOF FOR USE IN TREATING KLEINE-LEVIN SYNDROME” (priority 2021, published 2024).

Tests used:
[1] = test system: patients with frequent episodes of KLS; details: compared to rest of stimulants; cited from earlier work
Mice, C57BL/6J, male = assay: Novel object recognition (NOR) test, long-term memory; format: in vivo; details: donepezil 2 mg/kg i.p.; 3-days interval
Description: Long-term episodic memory was tested in the NOR test, using a 3-days interval between the acquisition session (called sample trial) and the retention session (called choice trial). This method allows to detect an improvement of memory in the natural forgetting condition:
The test was carried out in circular boxes (30 cm diameter, 40 cm high). The objects to be discriminated (L≈1≈h≈3-4 cm) differed in both color and shape and were referred as yellow duck and blue lego. They were fixed with a magnet to the floor of the boxes at 5 cm of the wall, 20 cm distant. Apparently, they have no natural significance for mice and they have never been associated with a reinforcement. In order to rule out the possibility of scent traces left on the objects and therefore the dependency of the recognition capacity of mice on the olfactory cue, the objects and the ground of the box were washed with an odorless disinfectant (Sanicid® diluted in water) and dried between each trial. A camcorder was fixed to the ceiling above the box to record the animals' activity. The experiment was analyzed blindly at a later time.
On the week before the test, animals were handled by the experimenter in charge of the experiment in order to be not stressed at the time of testing. For this purpose, the experimenter placed a small amount of litter, and then the mouse on its hand. […] The NOR test was completed over five days (see FIG. 1): • Day 1: Habituation trial. Animals were individually placed for a 15-min free exploration session in empty open boxes. • Day 2. Treatment administration and sample trial. […] They were individually placed 30 min after in the apparatus for a 6-min session with two identical objects (Duck, 50% of animals or Lego, 50% of animals). • […]. […]. The mice were individually placed for a 6-min session in the apparatus with two objects (Duck and Lego), one of the objects presented in sample trials (termed as familiar objects) and a novel object (Lego, 50% of animals or Duck, 50% of animals).
The sample and choice trials were recorded with the camera located above the apparatus. The time spent by mice in exploring the objects was measured during the sample trial and the choice trial.
Exploration of an object was defined as follows: directing the nose to the object at a distance≤2 cm and/or touching it with the nose or forelimbs: turning around or biting the object, or sitting on the object were not considered as exploratory behavior.
Data recorded: • L=exploration time of the left object in the sample trial. • R=exploration time of the right object in the sample trial. • N=exploration time of the new object in the choice trial. • F=exploration time of the familiar object in the choice trial. Object recognition task indices include the following parameters: • Exploration indices: • ST=L+R=exploration time (left object+right object) in the sample trial. • CT=N+F=exploration time (new object+familiar object) in the choice trial. • Two memory indices: • N−F=difference of exploration time between the new object and the familiar object in the choice trial.
Statistical analyses: • Read-outs: DI, N−F, ST, CT, N, F • Unpaired Student's t test: Donep 2 group vs. Control group. • One-way ANOVA, Dunnett test: • Benedin groups vs. Control group. • Benedin groups vs. Donep 2 group. • Read-outs: DI and N−F, for all groups, paired Student's t test, difference vs. 0. • Body weight: one-way ANOVA.

Compound	response (reducing the number of episodes) [1] [%]	recognition of the familiar object, i.e. memory (Mice, C57BL/6J, male)
NC12CC3CC(CC(C3)C1)C2 [Amantadine]	41	
Donepezil hydrochloride [reference compound]		improved the recognition of the familiar object
